Where “and” joins values, the source holds several entries; their conditions need not be identical. Identical values can stand only once. Positions of bridges follow the written chain, without caps; N, C: chain ends. Residues, ends and D or L forms follow the SMILES beside them.
Legend:
[1] = target: T1, Natriuretic Peptide Receptor-A (NPR-A) signaling in MDCK cells (Canis lupus familiaris, UniProt A0A8I3MHU3); type: cell-based, canine; conditions: stimulation of cGMP accumulation in MDCK cells; for EC50: read-out: EC50 (M) ± Standard Error
T1 sequence (A0A8I3MHU3 32-1060): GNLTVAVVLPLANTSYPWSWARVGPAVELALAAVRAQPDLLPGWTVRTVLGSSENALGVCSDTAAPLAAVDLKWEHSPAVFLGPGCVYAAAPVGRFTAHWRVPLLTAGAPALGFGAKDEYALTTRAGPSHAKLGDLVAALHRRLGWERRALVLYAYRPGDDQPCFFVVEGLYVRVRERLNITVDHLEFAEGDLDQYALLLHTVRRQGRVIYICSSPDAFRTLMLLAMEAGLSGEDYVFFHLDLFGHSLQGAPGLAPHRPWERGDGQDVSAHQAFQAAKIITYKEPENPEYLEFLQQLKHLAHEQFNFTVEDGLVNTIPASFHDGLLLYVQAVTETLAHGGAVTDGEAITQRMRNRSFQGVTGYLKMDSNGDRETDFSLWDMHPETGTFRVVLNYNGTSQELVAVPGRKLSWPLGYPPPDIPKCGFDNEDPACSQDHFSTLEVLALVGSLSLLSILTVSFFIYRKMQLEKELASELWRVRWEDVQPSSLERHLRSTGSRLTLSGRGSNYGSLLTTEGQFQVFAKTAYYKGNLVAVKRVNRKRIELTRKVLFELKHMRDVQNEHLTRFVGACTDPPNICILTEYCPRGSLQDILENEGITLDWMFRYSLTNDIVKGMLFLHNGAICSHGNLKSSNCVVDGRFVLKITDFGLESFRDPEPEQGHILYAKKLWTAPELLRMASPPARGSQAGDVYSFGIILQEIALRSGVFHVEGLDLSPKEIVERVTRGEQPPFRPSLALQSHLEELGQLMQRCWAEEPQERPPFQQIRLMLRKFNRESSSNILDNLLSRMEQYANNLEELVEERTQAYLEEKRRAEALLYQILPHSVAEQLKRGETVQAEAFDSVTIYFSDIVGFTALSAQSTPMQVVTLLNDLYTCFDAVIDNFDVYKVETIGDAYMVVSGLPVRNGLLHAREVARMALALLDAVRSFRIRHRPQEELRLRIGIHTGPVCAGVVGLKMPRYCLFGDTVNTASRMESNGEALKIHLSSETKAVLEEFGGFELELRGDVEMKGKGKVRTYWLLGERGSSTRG

[2] = system: conscious rabbits; assay: Blood pressure and heart rate in conscious rabbits, intravenous infusion dose-response (Example 8); conditions: for recovery of MAP, in words: 2 hours after infusion; for MAP at final dose / Recovery (MAP) / Recovery Delta SED (MAP) / Treatment Effect, change of mean blood pressure during the infusion: Table 10B; for Recovery (MAP) / Recovery Delta SED (MAP): after a 2 hour recovery period; for Treatment Effect, change of mean blood pressure during the infusion: final dose, groups 2B and 2C
[3] = system: denuded aortic rings, GC A receptor; assay: Relaxation of noradrenaline constricted endothelium-denuded aortic rings (Example 11); set-up: species or system rat; conditions: GC-A mediated
Experimental: Male Sprague Dawley rats were killed and the descending thoracic aorta rapidly removed and flushed with physiological solution. After being cleared of adhering fat and connective tissue, 5 mm rings were mounted under 10 g resting tension, between two stainless steel hooks, in organ baths (37° C.) containing carbogenated (95% O2 and 5% CO2) physiological salt solution of the following composition (mM): NaCl, 118.4; NaHCO3, 25; glucose, 11; KCl, 4.7; MgSO4, 1.2; KH2PO4, 1.2 and CaCl2, 2.5. The lower hook was attached to a tissue holder and the upper hook to a force displacement transducer (Grass FTO3). Where indicated endothelial cells were removed by gentle rubbing of the intimal surface with a wire. To confirm the presence or absence of endothelial cells, tissues were precontracted with a sub-maximal concentration of phenylephrine (0.3 μM) and the response to acetylcholine (ACh, 10 μM) observed. Ach-induced relaxation greater than 80% of maximum indicated the presence of endothelium; whereas Ach-induced relaxation less than 10% indicated the absence of endothelium. Ring preparations under resting tension were conditioned by two contraction/relaxation cycles with 40 mM KCl, contracted by a third application of 40 mM KCl and then relaxed with different doses of the venom peptides. Responses were expressed as a percentage relaxation of the precontraction by KCl.
In addition to the peptides tested in example 3, a series of 13 analogs corresponding to the 2a, 2b and 2c grouping of peptides were examined for their ability to dilate noradrenaline constricted aortic rings. The degree of constriction was expressed as a percentage of the KCl induced constriction. The aortic rings were prepared in a manner similar to the method described in example 3. […]. In each case there were at least 3 separate aortic rings tested per peptide and all were denuded of endothelium to ensure responses were confined to the GC A receptor.

SMILES | −Log10 EC50 (pEC50) ± Standard Error [1] | EC50 [1] [M] | recovery of MAP, in words [2] | MAP at final dose [2] [mm Hg] | Recovery (MAP) [2] [mm Hg] | Recovery Delta SED (MAP) [2] [mm Hg] | Treatment Effect, change of mean blood pressure during the infusion [2] [mm Hg] | Mean relaxation SEM of denuded aortic rings expressed as % of KCl response [3]
CC[C@H](C)[C@H](NC(=O)[C@H](CCCCN)NC(=O)[C@H](CO)NC(=O)[C@H](CC(=O)O)NC(=O)[C@@H](N)CO)C(=O)NCC(=O)N[C@@H](CCCCN)C(=O)NCC(=O)N[C@H]1CSSC[C@@H](C(=O)N[C@@H](CC(N)=O)C(=O)N[C@@H](CCCNC(=N)N)C(=O)N[C@H](C(=O)N[C@@H](CCSC)C(=O)N[C@@H](CCC(N)=O)C(=O)N[C@@H](CC(N)=O)C(=O)N2CCC[C@H]2C(=O)N2CCC[C@H]2C(=O)N[C@@H](CCCCN)C(=O)N[C@@H](CCCCN)C(=O)N[C@@H](Cc2ccccc2)C(=O)N[C@@H](CO)C(=O)NCC(=O)N[C@@H](CCC(=O)O)C(=O)O)[C@@H](C)CC)NC(=O)CNC(=O)[C@H](CC(C)C)NC(=O)CNC(=O)[C@H](CO)NC(=O)[C@H](C(C)C)NC(=O)[C@H](CO)NC(=O)CNC(=O)[C@H]([C@@H](C)CC)NC(=O)[C@H](CCCNC(=N)N)NC(=O)[C@H](CC(=O)O)NC(=O)[C@H](CC(C)C)NC(=O)[C@@H]2CCCN2C(=O)[C@H](Cc2ccccc2)NC(=O)CNC(=O)[C@H](Cc2ccccc2)NC1=O [TNPc K7] (H-SDSKIGKGCFGFPLDRIGSVSGLGCNRIMQNPPKKFSGE-OH; disulfide 9-25; N-terminus assumed) | 7.443 ± 0.2700 | 5.28e-08 | did not recover after 2 hours | 59.0 | 62.4 | 3.4 ± 1.9 | −14.1 | 50% and 46.1 ± 13.5%
CC[C@H](C)[C@H](NC(=O)[C@H](CCCCN)NC(=O)[C@H](CO)NC(=O)[C@H](CC(=O)O)NC(=O)[C@@H](N)CO)C(=O)NCC(=O)N[C@@H](C)C(=O)NCC(=O)N[C@H]1CSSC[C@@H](C(=O)N[C@@H](CC(N)=O)C(=O)N[C@@H](CCCNC(=N)N)C(=O)N[C@H](C(=O)N[C@@H](CCSC)C(=O)N[C@@H](CCC(N)=O)C(=O)N[C@@H](CC(N)=O)C(=O)N2CCC[C@H]2C(=O)N2CCC[C@H]2C(=O)N[C@@H](CCCCN)C(=O)N[C@@H](CCCCN)C(=O)N[C@@H](Cc2ccccc2)C(=O)N[C@@H](CO)C(=O)NCC(=O)N[C@@H](CCC(=O)O)C(=O)O)[C@@H](C)CC)NC(=O)CNC(=O)[C@H](CC(C)C)NC(=O)CNC(=O)[C@H](CO)NC(=O)[C@H](C(C)C)NC(=O)[C@H](CO)NC(=O)CNC(=O)[C@H]([C@@H](C)CC)NC(=O)[C@H](CCCNC(=N)N)NC(=O)[C@H](CC(=O)O)NC(=O)[C@H](CC(C)C)NC(=O)[C@@H]2CCCN2C(=O)[C@H](Cc2ccccc2)NC(=O)CNC(=O)[C@H](Cc2ccccc2)NC1=O [TNPc A7] (H-SDSKIGAGCFGFPLDRIGSVSGLGCNRIMQNPPKKFSGE-OH; disulfide 9-25; N-terminus assumed) | 6.867 ± 0.1915 | 1.61e-07 | did not recover after 2 hours | 64.0 | 71.3 | 7.3 ± 2.9 | −11.2 | 32.9 ± 4.5%

Reference: patent US8058242B2, “Chimeric proteins with natriuretic activity” (The University of Queensland, priority 2004, dated 2011)
